Results taken from patent US6864286B2, “Inhibitors of the EGF-receptor tyrosine kinase and methods for their use” (Parker Hughes Institute, priority 1998, dated 2005).
Read-outs that look alike come from different tables or passages of the source.

How the values were obtained:
JAK3 = target: T1, JAK3 (Homo sapiens, UniProt P52333); assay: Cell-free JAK3 immune complex kinase assay; assay type: biochemical; settings: for effect on enzymatic activity of JAK3: at concentrations as high as 350 μM
T1 construct: made in house; host or cells: Sf21 insect cells (baculovirus)
T1 sequence (P52333 1-1124): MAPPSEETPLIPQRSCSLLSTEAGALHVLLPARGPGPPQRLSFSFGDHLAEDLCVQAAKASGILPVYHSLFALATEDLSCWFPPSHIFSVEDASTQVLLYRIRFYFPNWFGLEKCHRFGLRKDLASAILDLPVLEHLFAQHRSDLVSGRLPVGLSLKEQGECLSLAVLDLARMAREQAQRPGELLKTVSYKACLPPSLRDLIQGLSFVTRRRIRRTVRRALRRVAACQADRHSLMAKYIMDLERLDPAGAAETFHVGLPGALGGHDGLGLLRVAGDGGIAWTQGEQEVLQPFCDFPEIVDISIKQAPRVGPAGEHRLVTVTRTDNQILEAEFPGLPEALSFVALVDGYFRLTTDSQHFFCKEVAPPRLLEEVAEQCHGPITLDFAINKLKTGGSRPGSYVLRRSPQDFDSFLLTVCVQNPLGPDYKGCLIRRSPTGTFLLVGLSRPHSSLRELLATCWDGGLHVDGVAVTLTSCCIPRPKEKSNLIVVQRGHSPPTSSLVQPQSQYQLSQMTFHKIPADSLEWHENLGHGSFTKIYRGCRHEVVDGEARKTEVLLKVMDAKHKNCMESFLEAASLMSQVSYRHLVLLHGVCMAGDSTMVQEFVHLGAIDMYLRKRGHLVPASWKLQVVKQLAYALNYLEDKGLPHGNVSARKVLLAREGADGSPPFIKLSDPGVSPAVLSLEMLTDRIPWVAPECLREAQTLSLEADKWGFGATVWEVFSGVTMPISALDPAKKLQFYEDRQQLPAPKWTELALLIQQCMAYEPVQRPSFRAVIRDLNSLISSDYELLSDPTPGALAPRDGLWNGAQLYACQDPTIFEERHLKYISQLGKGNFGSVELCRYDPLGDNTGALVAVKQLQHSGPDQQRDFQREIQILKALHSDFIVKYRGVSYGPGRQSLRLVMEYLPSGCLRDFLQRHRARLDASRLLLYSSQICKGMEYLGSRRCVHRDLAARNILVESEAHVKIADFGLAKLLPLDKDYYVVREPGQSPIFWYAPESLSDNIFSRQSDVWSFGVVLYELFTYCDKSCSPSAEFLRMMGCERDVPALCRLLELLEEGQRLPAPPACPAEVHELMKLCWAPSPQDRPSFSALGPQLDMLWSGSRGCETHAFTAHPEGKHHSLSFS
Description: Immunoprecipitations, immune-complex protein kinase assays, and immunoblotting using the ECL chemiluminescence detection system (Amersham Life Sciences) were conducted as described previously (Vassilev, A., et al. J. Biol. Chem. 1998, in press; Goodman, P. A., et al. J. Biol. Chem. 1998, 273, 17742; Mahajan, S., et al. Mol. Cell. Biol. 1995, 15, 5304; Uckun, F. M., et al. Science 1996, 22, 1096).

MDA-MB-231 cells = assay: In vitro clonogenic assay, MDA-MB-231; assay type: cell-based, human; settings: 24 hour treatment; for inhibition at 0.1 µM / inhibition at 10 µM / inhibition at 100 µM: Homo sapiens
Description: In order to determine the cytotoxic activity of LFM and its analogs against breast cancer cells, cells in alpha-MEM supplemented with 10% (v/v) fetal calf serum were treated with various concentrations of the compounds for 24 hours at 37° C., washed twice in alpha-MEM, and then used in either MTT assays or in vitro invasion assays, as described hereinafter.
After treatment with LFM analogs, cells were resuspended in clonogenic medium consisting of alpha-MEM supplemented with 0.9% methylcellulose, 30% fetal bovine serum, and 50 μM 2-mercaptoethanol. Cells were plated in duplicate Petri dishes at 100,000 cells/mL/dish and cultured in a humidified 5% CO2 incubator for 7 days. Cancer cell colonies were enumerated on a grid using an inverted phase microscope of high optical resolution (Uckun F. M., et al. Clin. Cancer Res. 1998, 4, 901-912; and Kuo). Results were expressed as % inhibition of clonogenic cells at a particular concentration of the test agent using the formula: % Inhibition=(1-Mean # of colonies [Test]/Mean # of colonies [Control])×100. Furthermore, the dose survival curves were constructed using the percent control survival (=Mean # of colonies[Test]/Mean # of colonies [Control]×100) results for each drug concentration as the data points and the IC50 values were calculated. The IC50 values were determined using an Prism Version II Inplot program (Graphpad Software, Inc., San Diego, Calif.).

[1] = test system: MDA-MB-231 human breast cancer cells; assay: Transfilter cell invasion assay (Matrigel-coated Boyden chambers); assay type: cell-based
Description: The chamber filters were coated with 50 μg/ml of Matrigel matrix, incubated overnight at room temperature under a laminar flow hood and stored at 4° C.
On the day of the experiment, the coated inserts were rehydrated with 0.5 ml serum-free DMEM containing 0.1% bovine serum albumin for 1-2 hours. To study the effects of LFM and LFM-A12 on invasiveness of MDA-MB-231 cells, exponentially growing cells were incubated with each compound at various concentrations ranging from 12.5 RM to 100 μM in 0.1% DMSO overnight. The cells were trypsinized, washed twice with serum-free DMEM containing BSA, counted and resuspended at 1×10^5 cells/ml.
A 0.5 ml cell suspension containing 5×10^4 cells in a serum-free DMEM containing LFM, LFM-A12, or vehicle was added to the Matrigel-coated and rehydrated filter inserts. Next, 750 μl of NIH fibroblast conditioned medium was placed as a chemoattractant in 24-well plates and the inserts were placed in wells and incubated at 37° C. for 48 hours. […] The invasive cells that migrated to the lower side of the filter were fixed, stained with Hema-3 solutions and counted under microscope. No cells were detected at the bottom of the Boyden chambers. Therefore, the number of cells on the lower side of the filters accounted for all cells that had migrated through the filter. Five (5) to ten (10) random fields per filter were counted to determine the mean (±SE) values for the invasive fraction. The invasive fractions of cells treated with LFM or LFM-A12 were compared to those of vehicle (0.1% DMSO in PBS) treated control cells and the percent inhibition of invasiveness was determined using the following formula: % Inhibition=100×(1-Invasive Fraction of Drug-Treated Cells/Invasive Fraction of Control Cells).

[2] = MDA-MB-231, migration for 48 hours, mean of two experiments, read-out: IC50 for inhibition of invasion through Matrigel matrix

| IC50 (JAK3; JAK3, cell-free, read-out: Inhibition IC50) [µM] | effect on enzymatic activity of JAK3 (JAK3) | IC50 [1, 2] [µM] | IC50 ([1]; MDA-MB-231, read-out: IC50 for inhibition of invasion through Matrigel matrix) [µM] | Compound | inhibition at 0.1 µM (MDA-MB-231 cells; MDA-MB-231, 0.1 μM) [%] | inhibition at 10 µM (MDA-MB-231 cells; MDA-MB-231, 10 μM) [%] | inhibition at 100 µM (MDA-MB-231 cells; MDA-MB-231, 100 μM) [%] | Tumor Cell Colonies/10^5 Cells (MDA-MB-231 cells; MDA-MB-231, 0.1 μM) | Tumor Cell Colonies/10^5 Cells (MDA-MB-231 cells; MDA-MB-231, 10 μM) | Tumor Cell Colonies/10^5 Cells (MDA-MB-231 cells; MDA-MB-231, 100 μM) | % Inhibition of clonogenic cells (MDA-MB-231 cells; MDA-MB-231, 100 μM, 100 µM) [%] |
| --- | --- | --- | --- | --- | --- | --- | --- | --- | --- | --- | --- |
| > 350 | did not affect the enzymatic activity | 28.4 | – | C/C(O)=C(\C#N)C(=O)Nc1ccc(OC(F)(F)F)cc1 [LFM-A12, α-Cyano-β-hydroxy-β-methyl-N-[4-(trifluoromethoxy)phenyl]-propenamide] | 42 | 55.2 | > 99 | 667 | 515 | 0 | >99 |
| – | did not affect the enzymatic activity | 97 | 97 | CC(O)=C(C#N)C(=O)Nc1ccc(C(F)(F)F)cc1 [LFM, α-Cyano-β-hydroxy-β-methyl-N-[4-(trifluoromethyl)phenyl]-propenamide, reference compound] | 16.2 | 44.2 | 74.2 | 964 | 642 | 297 | – |
